According to US12643889B2, “Synthesis of novel EP4 antagonist and use in cancer and inflammation” (Wuhan Humanwell Innovative Drug Research And Development …, priority 2020, dated 2026):

Columns and labels:
[1] = Mouse pharmacokinetic assay; format: in vivo, male ICR mice; conditions: male, ICR, plasma
Method: (§1) In a mouse pharmacokinetic assay, male ICR mice (20 g to 25 g) were selected and fasted overnight. Three mice were selected and intragastrically administered with 5 mg/kg of the corresponding compound. The blood of the mice was collected before the administration and at 15 min, 30 min, 1 h, 2 h, 4 h, 8 h, 24 h after the administration. Another 3 mice were intravenously administered with 1 mg/kg of the corresponding compound, and the blood thereof was collected before the administration and at 15 min, 30 min, 1 h, 2 h, 4 h, 8 h, 24 h after the administration. The blood samples were centrifuged at 6800 g at 2° C. to 8° C. for 6 minutes, and plasma was collected and stored at −80° C. The plasma was taken at respective time point, mixed with 3-5 times the amount of acetonitrile containing internal standard, vortexed for 1 minute, centrifuged at 4° C. for 10 minutes at 13000 rpm, supernatant was added 3 times the amount of water, and the appropriate mixture was taken for LC-MS/MS analysis. The primary pharmacokinetic parameters were analyzed with a WinNonlin 7.0 software, with non-compartmental model.

[2] = Rat pharmacokinetic assay; format: in vivo, male SD rats
Method: as §1
In a rat pharmacokinetic assay, male SD rats (180 g to 240 g) were selected and fasted overnight. Three rats were intragastrically administered with 5 mg/kg of the corresponding compound. Another 3 rats were intravenously administered with 1 mg/kg of the corresponding compound. The following operations were the same as the mouse pharmacokinetic assay.

human EP4 receptor = human EP4 receptor (Homo sapiens, UniProt P35408); test: Assay of calcium current inhibition on EP4 receptor (FLIPR, 293 cells); format: cell-based; design: expressed in transfected cells; host or cells: 293 cells; conditions: 293 cells overexpressing human EP4; PGE2 at EC80; FLIPR
Method: The cells were rapidly thawed in a 37° C. water bath, centrifuged, resuspended, and counted. The cell suspensions were seeded at 20 μL/well in two 384-well plates (20,000 cells/well) and placed in an incubator (a 37° C., 5% CO2) overnight. Preparation of a 2× Fluo-4 Direct™ (Invitrogen, Cat #F10471) loading buffer: 77 mg of probenecid was added to 1 mL of a FLIPR buffer, with a concentration of 250 mM. 10 mL of FLIPR buffer and 0.2 mL of probenecid (250 mM) were added to each tube of Fluo-4 Direct™ crystals (F10471).
One of the cell plates was taken out of the incubator and the medium was removed. 20 μL of an assay buffer and 2× Fluo-4 Direct™ non-wash loading buffer were added to the 384-well cell culture plate to a final volume of 40 μL, and then the culture plate was incubated in an incubator (a 37° C., 5% CO2) for 50 minutes, and then at room temperature for 10 minutes, and then the plate was placed in the FLIPR. 10 μL of the buffer was transferred to the cell plate and the fluorescence signal was read. The agonist PGE2 was formulated as a 10 mM stock in a DMSO solvent and 10 concentration points of the 6× working solution were serially diluted using the buffer. 10 μL of the agonist PGE2 was transferred to the cell plate, the fluorescence signal was read to calculate EC80 value.
The agonist PGE2 was prepared at 6× EC80 concentration and the compound to be tested was formulated as a 10 mM stock solution in the DMSO solvent and 10 concentration points of the 6× compound working solution was serially diluted using the buffer.
Another cell plate was taken to remove media and 20 μL of the assay buffer and 2× Fluo-4 Direct™ non-wash loading buffer were added; the cell plate was incubated in a 37° C., 5% CO2 incubator for 50 minutes and room temperature for 10 minutes and then placed in the FLIPR. 10 μL of the compound working solution, DMSO, and the EP4 full antagonist were transferred to the cell plate and the fluorescence signal was read. […] Inhibition (%)=100−(test group−EP4 full antagonist group)/(DMSO group−EP4 full antagonist group)*100
Compound's IC50 value of EP4 calcium current inhibition was calculated based on the inhibition rate at different concentrations of the compound.

[3] = intravenous administration 1 mg/kg
[4] = oral gavage administration 5 mg/kg
[5] = male, SD, plasma, rat, intravenous administration 1 mg/kg
[6] = male, SD, plasma, rat, oral gavage administration 5 mg/kg

Sequence of human EP4 receptor (P35408 whole entry): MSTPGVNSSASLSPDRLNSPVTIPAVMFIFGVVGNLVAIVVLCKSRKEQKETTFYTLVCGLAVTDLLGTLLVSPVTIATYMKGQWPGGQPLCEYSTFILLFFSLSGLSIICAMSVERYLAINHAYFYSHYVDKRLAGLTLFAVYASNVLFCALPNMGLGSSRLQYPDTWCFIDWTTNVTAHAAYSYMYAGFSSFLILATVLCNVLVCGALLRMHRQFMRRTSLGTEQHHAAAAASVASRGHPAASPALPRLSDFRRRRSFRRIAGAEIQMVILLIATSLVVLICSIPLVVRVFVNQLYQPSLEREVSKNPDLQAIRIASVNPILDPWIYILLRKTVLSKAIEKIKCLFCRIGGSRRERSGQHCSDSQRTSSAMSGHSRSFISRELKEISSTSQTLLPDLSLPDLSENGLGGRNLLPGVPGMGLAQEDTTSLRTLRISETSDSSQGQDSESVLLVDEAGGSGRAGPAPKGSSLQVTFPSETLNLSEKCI

AUC(0-t) [1, 3]: 1260 ng·h/mL
clearance [1, 3]: 12.7 mL/min/kg
half-life [1, 3]: 5.11 h
Vd ([1]; intravenous administration 1 mg/kg, read-out: Vz): 5.62 L/kg
AUC(0-t) [1, 4]: 2710 ng·h/mL
Cmax [1, 4]: 1450 ng/mL
Tmax [1, 4]: 0.33 h
half-life [1, 4]: 7 h
AUC(0-t) [2, 5]: 1670 ng·h/mL
clearance [2, 5]: 9.5 mL/min/kg
half-life [2, 5]: 9.3 h
Vd ([2]; male, SD, plasma, rat, intravenous administration 1 mg/kg, read-out: Vz): 7.66 L/kg
AUC(0-t) [2, 6]: 10800 ng·h/mL
Cmax [2, 6]: 993 ng/mL
Tmax [2, 6]: 2 h
half-life [2, 6]: 9.87 h
exposure after oral administration relative to the control compound ([2]; rats, oral administration): about 2 times
IC50 (human EP4 receptor): 12 nM
Compound: C[C@H](NC(=O)c1c(C(F)F)nn(C)c1Oc1cccc(C(C)(F)F)c1)c1ccc(C(=O)O)cc1 [Compound I-5, (S)-4-(1-(5-(3-(1,1-difluoroethyl)phenoxy)-3-(difluoromethyl)-1-methyl-1H-pyrazole-4-carboxamido)ethyl)benzoic Acid]
